Laboratory results reported in patent US20260027068A1, “METHODS OF ADM[…]-KETAMINE” (Perception Neuroscience, Inc., priority 2022, published 2026).

Tested on: subjects with TRD
Assay: Modified Observer's Assessment of Alertness/Sedation (MOAA/S)
Method: The Investigational Medicinal Product (IMP) R(−)-ketamine hydrochloride in sterile water for intravenous injection was investigated as an […] treatment of TRD. The International Union of Pure and Applied Chemistry (IUPAC) name is of the IMP is (2R)-2-(2-chlorophenyl)-2-(methylamino)cyclohexan-1-one. Subjects received the solution at either 30 mg or 60 mg dose, or a placebo. The IMP or placebo was administered on Day 1 as a single IV infusion via an electronic infusion pump over 40 minutes. The duration of study participation for each subject was up to 29 days including a screening period, a 3-day in-clinic visit, and 2 follow-up visits. 101 subjects were enrolled in approximately 20 study centers in the EU and the US.
The MOAA/S will were to determine if R(−)-ketamine causes the side effect of sedation and to what degree. Sedation was evaluated by the study staff using the MOAA/S. The observer recorded the subject's alertness pre-dose, every 20 minutes for first 2 hours post-dose, and at 4 and 6 hours after the start of the infusion.

[1] = 30 mg, 10 min post start of infusion, n 10
[2] = 30 mg, 20 min post start of infusion, n 33
[3] = 30 mg, 30 min post start of infusion, n 10
[4] = 30 mg, 40 min post start of infusion, n 33
[5] = 30 mg, 50 min post start of infusion, n 10
[6] = 30 mg, 1 hour 10 min post start of infusion, n 10
[7] = 30 mg, 1 hour 20 min post start of infusion, n 33
[8] = 30 mg, 1 hour 30 min post start of infusion, n 10
[9] = 30 mg, 1 hour 40 min post start of infusion, n 33
[10] = 30 mg, 1 hour 50 min post start of infusion, n 10
[11] = 30 mg, 1 hour post start of infusion, n 33
[12] = 30 mg, to 10 min post-start, n 10
[13] = 30 mg, to 20 min post-start, n 33
[14] = 30 mg, to 30 min post-start, n 10
[15] = 30 mg, to 40 min post-start, n 33
[16] = 30 mg, to 50 min post-start, n 10
[17] = 30 mg, to 1 hour 10 min post-start, n 10
[18] = 30 mg, to 1 hour 20 min post-start, n 33
[19] = 30 mg, to 1 hour 30 min post-start, n 10
[20] = 30 mg, to 1 hour 40 min post-start, n 33
[21] = 30 mg, to 1 hour 50 min post-start, n 10
[22] = 30 mg, to 1 hour post-start, n 33
[23] = 60 mg, 10 min post start of infusion, n 11
[24] = 60 mg, 20 min post start of infusion, n 35
[25] = 60 mg, 30 min post start of infusion, n 11
[26] = 60 mg, 40 min post start of infusion, n 35
[27] = 60 mg, 50 min post start of infusion, n 11
[28] = 60 mg, 1 hour 10 min post start of infusion, n 11
[29] = 60 mg, 1 hour 20 min post start of infusion, n 34
[30] = 60 mg, 1 hour 30 min post start of infusion, n 11
[31] = 60 mg, 1 hour 40 min post start of infusion, n 35
[32] = 60 mg, 1 hour 50 min post start of infusion, n 11
[33] = 60 mg, 1 hour post start of infusion, n 35
[34] = 60 mg, to 10 min post-start, n 11
[35] = 60 mg, to 20 min post-start, n 35
[36] = 60 mg, to 30 min post-start, n 11
[37] = 60 mg, to 40 min post-start, n 35
[38] = 60 mg, to 50 min post-start, n 11
[39] = 60 mg, to 1 hour 10 min post-start, n 11
[40] = 60 mg, to 1 hour 20 min post-start, n 34
[41] = 60 mg, to 1 hour 30 min post-start, n 11
[42] = 60 mg, to 1 hour 40 min post-start, n 35
[43] = 60 mg, to 1 hour 50 min post-start, n 11
[44] = 60 mg, to 1 hour post-start, n 35

CN[C@@]1(c2ccccc2Cl)CCCCC1=O.Cl [R(−)-ketamine, (2R)-2-(2-chlorophenyl)-2-(methylamino)cyclohexan-1-one]
(34.3) %: Subjects with post-baseline MOASS <5, percent (60 mg (n = 35))
9 n: Subjects with post-baseline MOASS <5, number (30 mg (n = 33))
12 n: Subjects with post-baseline MOASS <5, number (60 mg (n = 35))
(27.3) %: Subjects with post-baseline MOASS <5, percent (30 mg (n = 33))

CN[C@@]1(c2ccccc2Cl)CCCCC1=O [PCN 101]
−0.0: MOAA/S change from baseline, Mean (30 mg, to 2 hours, n 33)
4.8: MOAA/S score, Mean [4] | MOAA/S score, Mean [7] | MOAA/S score, Mean [11] | MOAA/S score, Mean [24] | MOAA/S score, Mean [26] | MOAA/S score, Mean [29] | MOAA/S score, Mean [31] | MOAA/S score, Mean [33] | MOAA/S score, Mean (60 mg, 2 hours, n 35)
4.9: MOAA/S score, Mean [2] | MOAA/S score, Mean [3] | MOAA/S score, Mean [5] | MOAA/S score, Mean [9] | MOAA/S score, Mean [23] | MOAA/S score, Mean [25] | MOAA/S score, Mean [27] | MOAA/S score, Mean (60 mg, 4 hours, n 32)
−0.2: MOAA/S change from baseline, Mean [15] | MOAA/S change from baseline, Mean [18] | MOAA/S change from baseline, Mean [22] | MOAA/S change from baseline, Mean [35] | MOAA/S change from baseline, Mean [37] | MOAA/S change from baseline, Mean [40] | MOAA/S change from baseline, Mean [42] | MOAA/S change from baseline, Mean [44] | MOAA/S change from baseline, Mean (60 mg, to 2 hours, n 35)
5.0: MOAA/S score, Mean [1] | MOAA/S score, Median [1] | MOAA/S score, Median [2] | MOAA/S score, Median [3] | MOAA/S score, Median [4] | MOAA/S score, Median [5] | MOAA/S score, Mean [6] | MOAA/S score, Median [6] | MOAA/S score, Median [7] | MOAA/S score, Mean [8] | MOAA/S score, Median [8] | MOAA/S score, Median [9] | MOAA/S score, Mean [10] | MOAA/S score, Median [10] | MOAA/S score, Median [11] | MOAA/S score, Mean (30 mg, 2 hours, n 33) | MOAA/S score, Median (30 mg, 2 hours, n 33) | MOAA/S score, Mean (30 mg, 4 hours, n 31) | MOAA/S score, Median (30 mg, 4 hours, n 31) | MOAA/S score, Mean (30 mg, 6 hours, n 31) | MOAA/S score, Median (30 mg, 6 hours, n 31) | MOAA/S score, Median [23] | MOAA/S score, Median [24] | MOAA/S score, Median [25] | MOAA/S score, Median [26] | MOAA/S score, Median [27] | MOAA/S score, Mean [28] | MOAA/S score, Median [28] | MOAA/S score, Median [29] | MOAA/S score, Mean [30] | MOAA/S score, Median [30] | MOAA/S score, Median [31] | MOAA/S score, Mean [32] | MOAA/S score, Median [32] | MOAA/S score, Median [33] | MOAA/S score, Median (60 mg, 2 hours, n 35) | MOAA/S score, Median (60 mg, 4 hours, n 32) | MOAA/S score, Mean (60 mg, 6 hours, n 32) | MOAA/S score, Median (60 mg, 6 hours, n 32)
−0.1: MOAA/S change from baseline, Mean [13] | MOAA/S change from baseline, Mean [14] | MOAA/S change from baseline, Mean [16] | MOAA/S change from baseline, Mean [20] | MOAA/S change from baseline, Mean [34] | MOAA/S change from baseline, Mean [36] | MOAA/S change from baseline, Mean [38] | MOAA/S change from baseline, Mean (60 mg, to 4 hours, n 32)
0.0: MOAA/S change from baseline, Mean [12] | MOAA/S change from baseline, Median [12] | MOAA/S change from baseline, Median [13] | MOAA/S change from baseline, Median [14] | MOAA/S change from baseline, Median [15] | MOAA/S change from baseline, Median [16] | MOAA/S change from baseline, Mean [17] | MOAA/S change from baseline, Median [17] | MOAA/S change from baseline, Median [18] | MOAA/S change from baseline, Mean [19] | MOAA/S change from baseline, Median [19] | MOAA/S change from baseline, Median [20] | MOAA/S change from baseline, Mean [21] | MOAA/S change from baseline, Median [21] | MOAA/S change from baseline, Median [22] | MOAA/S change from baseline, Median (30 mg, to 2 hours, n 33) | MOAA/S change from baseline, Mean (30 mg, to 4 hours, n 31) | MOAA/S change from baseline, Median (30 mg, to 4 hours, n 31) | MOAA/S change from baseline, Mean (30 mg, to 6 hours, n 31) | MOAA/S change from baseline, Median (30 mg, to 6 hours, n 31) | MOAA/S change from baseline, Median [34] | MOAA/S change from baseline, Median [35] | MOAA/S change from baseline, Median [36] | MOAA/S change from baseline, Median [37] | MOAA/S change from baseline, Median [38] | MOAA/S change from baseline, Mean [39] | MOAA/S change from baseline, Median [39] | MOAA/S change from baseline, Median [40] | MOAA/S change from baseline, Mean [41] | MOAA/S change from baseline, Median [41] | MOAA/S change from baseline, Median [42] | MOAA/S change from baseline, Mean [43] | MOAA/S change from baseline, Median [43] | MOAA/S change from baseline, Median [44] | MOAA/S change from baseline, Median (60 mg, to 2 hours, n 35) | MOAA/S change from baseline, Median (60 mg, to 4 hours, n 32) | MOAA/S change from baseline, Mean (60 mg, to 6 hours, n 32) | MOAA/S change from baseline, Median (60 mg, to 6 hours, n 32)
